Values quoted from earlier work as cited in patent publication US20240082151A1, “ORALLY IMPLANTABLE DRUG DELIVERY DEVICE” (priority 2019, published 2024).

Assays:
HIV = conditions: target for effective HIV prevention
[1] = target TFV-DP in PBMCs 50 fmol per million cells; PB-PK simulation (ref 33)
[2] = another study (ref 34)

Compound | steady state plasma CAB concentration, four times the protein adjusted IC90 (PA-IC90) (HIV) [µg/mL] | linear subcutaneous TAF release rate estimated to lead to protective TFV-DP PBMC concentrations [1] [mg/day] | TAF release rate estimated to be protective [2]
C[C@H]1CO[C@@H]2Cn3cc(C(=O)NCc4ccc(F)cc4F)c(=O)c(O)c3C(=O)N12 [CAB, Cabotegravir] | 0.66 | – | –
CC(C)OC(=O)[C@H](C)N[P@](=O)(CO[C@H](C)Cn1cnc2c(N)ncnc21)Oc1ccccc1 [TAF, Tenofovir alafenamide] | – | 0.5 | ca. 0.3 mg d^−1
